Data taken from paper PMC6511942, “Exploitation of Antibiotic Resistance as a Novel Drug Target: Development of a β-Lactamase-Activated Antibacterial Prodrug” (Journal of Medicinal Chemistry, 2019).

Each compound was assayed on CFT073 + pSU18 (pEMP) (assay: microbe, parasite or virus in culture). Conditions: Escherichia coli, read-out: MIC value CFT073 + pSU18, empty plasmid, no β-lactamase.
Format: cell-based, E. coli
`CCCCCC(=O)N[C@@H]1C(=O)N2C(C(=O)O)=C(COC(C)=O)CS[C@H]12` [compound 28, (6R,7R)-3-(Acetoxymethyl)-7-hexanamido-8-oxo-5-thia-1-azabicyclo[4.2.0]oct-2-ene-2-carboxylic Acid] was tested, and the MIC was 100 µM. In the case of `CC(=O)OCC1=C(C(=O)O)N2C(=O)[C@@H](NC(=O)Cc3ccc(C)cc3)[C@H]2SC1` [compound 12, (6R,7R)-3-(Acetoxymethyl)-8-oxo-7-(2-(p-tolyl)acetamido)-5-thia-1-azabicyclo[4.2.0]oct-2-ene-2-carboxylic Acid], the MIC is reported as 100 µM. `CC(=O)OCC1=C(C(=O)O)N2C(=O)[C@@H](NC(=O)Cc3ccc(Br)cc3)[C@H]2SC1` [compound 15, (6R,7R)-3-(Acetoxymethyl)-7-(2-(4-bromophenyl)acetamido)-8-oxo-5-thia-1-azabicyclo[4.2.0]oct-2-ene-2-carboxylic Acid] gave an MIC of 100 µM. Compound `CC(=O)OCC1=C(C(=O)O)N2C(=O)[C@@H](NC(=O)Cc3ccc(F)cc3)[C@H]2SC1` [compound 13, (6R,7R)-3-(Acetoxymethyl)-7-(2-(4-fluorophenyl)acetamido)-8-oxo-5-thia-1-azabicyclo[4.2.0]oct-2-ene-2-carboxylic Acid] has an MIC of 100 µM. For `CC(=O)OCC1=C(C(=O)O)N2C(=O)[C@@H](NC(=O)Cc3ccc(Cl)cc3)[C@H]2SC1` [compound 14, (6R,7R)-3-(Acetoxymethyl)-7-(2-(4-chlorophenyl)acetamido)-8-oxo-5-thia-1-azabicyclo[4.2.0]oct-2-ene-2-carboxylic Acid], the MIC was 100 µM.
